# Values of other authors as cited in patent US20110098303A1, “Method of promoting nail growth using thyromimetic compounds” (priority 2002, published 2011).
# Legend:
# [1] = system: nail growth; settings: in vivo
# [2] = system: AGA mouse; settings: topical treatment
# [3] = system: mice
Compound,rate of nail growth [1],effect on testosterone induced alopecia [2],"hair growth ([3]; administered locally, directly to the skin)",growth of hair ([3]; systemically administered)
CSCC[C@H](N)C(=O)O [methionine],accelerate the rate of nail growth,,,
"N[C@@H](Cc1cc(I)c(Oc2ccc(O)c(I)c2)c(I)c1)C(=O)O [T3, 3,5,3′-triiodo-L-thyronine]",,inhibitory effect,dramatic acceleration of hair growth,inhibits the growth of hair
O=C(O)CCCC[C@@H]1SC[C@@H]2NC(=O)N[C@@H]21 [biotin],accelerate the rate of nail growth,,,
N[C@@H](Cc1ccc(O)c(O)c1)C(=O)O [I-dopa],accelerate the rate of nail growth,,,
N[C@@H](CSSC[C@H](N)C(=O)O)C(=O)O [cystine],accelerate the rate of nail growth,,,
